Results: patent US20110065715A1, “Nogo Receptor Binding Small Molecules to Promote Axonal Growth” (Yale University, priority 2007, published 2011)
“Also recorded” adds a separate entry of the source. Like-named read-outs stand apart in the source and are kept apart here.

Tests used:
[1] = test system: embryonic day 13 or 14 chick DRG neurons; experiment: Neurite outgrowth assay, E13/E14 chick DRG neurons; assay type: cell-based, chicken; settings: 20 μM; for neurite outgrowth compared to the DMSO control: E13 or E14 chick DRG, two to four hours
Experimental: (§1) To test the ability of the “hit” compounds to promote neurite outgrowth, a neurite outgrowth assay was performed using each of these compounds. Dorsal root ganglia (DRG) were removed from chicken embryos at embryonic day 13 or 14, dissociated by trituration after 30 min incubation in 0.5% collagenase, and plated on laminin-coated 96-well tissue culture plates in DMEM with 10% fetal bovine serum containing 20 μM of the test compound. After two to four hours of incubation, the cells were fixed in 4% formaldehyde in phosphate buffered saline (PBS), washed in PBS, and blocked for 1 hour in PBS with 0.1% triton X-100 and 10% goat serum. The cells were incubated in rabbit anti-beta-3-tubulin (1:500) in PBS overnight and then washed 3 times with PBS. The cells were then incubated in Alexa-fluor 488 goat anti-rabbit IgG (1:500) for 6 hrs, washed with PBS, and imaged at 10× with an ImagExpress automated microscope (Molecular Devices, Inc.). Neurite outgrowth was measured with AcuityExpress software (Molecular Devices, Inc.).

[2] = test system: Nogo receptor:Nogo ligand (Nogo 66) interaction; experiment: DELFIA assay of Fc-NgR:Ng66 interaction; assay type: binding
Experimental: ELISA and DELFIA assays were then performed to evaluate the ability of the small molecules that were identified as “hits” in the AlphaScreens to inhibit the interaction of NgR and Nogo ligand. In the DELFIA Assay, 96 well streptavidin coated plates were blocked overnight with PBS and 10 mg/ml bovine serum albumin (BSA) (200 μl). The wells were then coated for 1.5 hours with sonicated HBH (Hanks Balanced Salt Solution/0.1 M HEPES/1 mg/ml BSA) containing Nogo 66 (B66) (0.5 μl of 10 mM/10 ml HBH) (50 μl) and then washed 4 times with 200 μl of HBH. The solution containing the inhibitor compound (50 μl in HBH) was added along with 1% FcNgR solution in HBH (50 μl), and the solution was incubated for 2 hours. The wells were washed 5 times with HBH. Alkaline phosphatase (AP) conjugated mouse anti-rat antibody (1:2500) was added and the wells were then washed 5 times with DELFIA wash buffer. The Europium (Eu) anti-mouse antibody was then added in Perlin Elmer Assay, buffer (100 μg/ml) (150 μl) and the wells were again washed 5 times with DELFIA wash buffer. The enhancer solution was added (100 μl) and the plate was read with the Perkin Elmer Victor 5 instrument 15 minutes later. (FIG. 10B) The results from the DELFIA assay indicate that compounds HTS08871, KM08071, and 503749, as well as the positive control, NEP33, inhibit the Nogo receptor:Nogo ligand (Nogo 66) interaction. (FIGS. 10D and 11A-C).

[3] = test system: embryonic day 13 (E13) chick DRG neurons; experiment: Competition neurite outgrowth assay with soluble FcNgR; assay type: cell-based, chicken; settings: for outgrowth promoting effect when coadministered with FcNgR: with 7.5 μM FcNgR, 3.5 hours
Experimental: as §1
To further verify the mechanism of how the compounds are promoting neurite outgrowth, a competition assay was performed. […] (FIG. 12B). compounds KM, HTS or 555 were then coadministered with 7.5 μM of FcNgR. […] (FIGS. 14A-B and 17B).

[4] = test system: embryonic day 8 (E8) chick DRG neurons; experiment: Neurite outgrowth assay, E8 chick DRG neurons (no Nogo receptor expressed); assay type: cell-based, chicken; settings: Nogo receptor not yet expressed
Experimental: as §1
In another experiment to verify the mechanism of action, a neurite outgrowth assay was performed as described above except the Dorsal root ganglia (DRG) were removed from chicken embryos at embryonic day 8 instead of day 13. At day 8, Nogo receptor is not yet expressed in the DRG. The compounds KM, HTS, 555, 5470, 585 were administered as described above and neurite outgrowth was measured. […] (FIG. 21)

[5] = test system: Nogo receptor:Nogo ligand (Nogo 66) interaction; experiment: ELISA assay of NgR:Nogo ligand interaction; assay type: binding
Experimental: In the ELISA assay, 96 well streptavidin coated plates were blocked overnight with PBS and 10 mg/ml bovine serum albumin (BSA) (200 μl). The wells were then coated for 1.5 hours with sonicated HBH (Hanks Balanced Salt Solution/0.1 M HEPES/1 mg/ml BSA) containing Nogo 66 (B66) (0.5 μl of 10 mM/10 ml HBH) (50 μl) and then washed 4 times with 200 μl of HBH. The solution containing the inhibitor compound (50 μl in HBH) was added along with 1% FcNgR solution in HBH (50 μl), and the solution was incubated for 2 hours. The wells were washed 5 times with HBH. Alkaline phosphatase (AP) conjugated mouse anti-rat antibody (1:2500) was added and the wells were then washed 5 times with HBH. Colorimetric alkaline phosphatase substrate was added for 30 minutes and the plate was read with the Perkin Elmer Victor 5 instrument. (FIG. 10A). […] (FIG. 10C).

Fc-NgR:Ng66 interaction = experiment: AlphaScreen of Fc-NgR:Ng66 interaction; assay type: binding
Chain of Fc-NgR:Ng66 interaction (Q99M75 27-310 limits assumed): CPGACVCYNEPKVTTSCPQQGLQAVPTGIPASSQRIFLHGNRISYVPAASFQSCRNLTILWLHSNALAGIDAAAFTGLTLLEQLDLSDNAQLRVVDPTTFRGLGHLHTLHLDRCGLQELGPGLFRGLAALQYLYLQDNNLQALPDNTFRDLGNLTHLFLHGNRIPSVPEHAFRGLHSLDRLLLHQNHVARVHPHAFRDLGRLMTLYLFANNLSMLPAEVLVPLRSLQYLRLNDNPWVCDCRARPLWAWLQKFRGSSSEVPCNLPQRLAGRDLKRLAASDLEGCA
Description: An AlphaScreen assay was used to screen for small molecule inhibitors of the Nogo receptor-Nogo ligand interaction. The AlphaScreen assay involves matching Alpha Donor (Streptavidin) and Acceptor beads (Protein A). (FIG. 1) These beads are coated with a layer of hydrogel to provide functional groups for bioconjugation. […] However, if a biological reaction brings the Alpha Donor and Acceptor beads into close proximity, upon laser excitation, a cascade of chemical reactions produces a greatly amplified signal. (FIG. 3) Upon laser excitation, a photosensitizer inside the Donor bead converts ambient oxygen to a more excited singlet state. The singlet state oxygen molecules diffuse to produce a chemiluminescent reaction in the Acceptor bead, leading to light emission. In the absence of a specific biological interaction, the singlet state oxygen molecules produced by the Donor bead go undetected without the close proximity of the Acceptor bead.
Beads conjugated to streptavidin were used to bind biotinylated Nogo 66 (Ng66) (the 66 amino acid inhibitory domain in the carboxyl region of Nogo ligand), and beads conjugated to Protein A were used to bind an Fc-Nogo receptor (NgR) fusion protein. (FIG. 2) By virtue of the interaction of Ng66 and Fc-NgR, the acceptor beads and donor beads were brought into proximity, yielding a signal upon excitation. […] (FIGS. 4 and 6). […]

Row | Compound | neurite outgrowth compared to the DMSO control [1] | effect on neurite outgrowth of day 8 DRGs [4] | further results
1 | CN(C)c1ccc(C2C=Cc3ccccc3N2C(=O)c2ccccc2)cc1 (centres unmarked) [compound 536, 4-(1-benzoyl-1,2-dihydro-2-quinolinyl)-N,N-dimethylaniline] | promoted neurite outgrowth | – | –
2 | CN(C)c1ccc(Cc2ccc(N(C)C)cc2)cc1 [BTB11222, N1,N1-dimethyl-4-[4-(dimethylamino)benzyl]aniline] | promoted neurite outgrowth | – | –
3 | CCc1cccc2c(C(C)=O)cn(Cc3ccc(C#N)cc3)c12 [compound 794, 4-[(3-acetyl-7-ethyl-1H-indol-1-yl)methyl]benzonitrile] | promoted neurite outgrowth | – | –
4 | COc1ccc2c(c1)NC(c1ccc(N(C)C)cc1)c1cccn1-2 (centres unmarked) [HTS, 4′-(7-methoxy-4,5-dihydropyrrolo[1,2-a]quinoxalin-4-yl)-N,N-dimethylaniline] | promoted neurite outgrowth | no effect | inhibition of Nogo receptor:Nogo 66 interaction signal, DELFIA [2]: dose dependent signal inhibition; inhibition of Nogo receptor:Nogo 66 interaction signal, DELFIA ([2]; listed as HTS08871): inhibit; neurite outgrowth in the absence of exogenous FcNgR [3]: promoted neurite outgrowth; outgrowth promoting effect when coadministered with FcNgR [3]: inhibited; also recorded: blocking
5 | N#Cc1ccc(Cn2c(=O)sc3ccccc32)cc1 [compound 535, 4-[(2-oxo-1,3-benzothiazol-3(2H)-yl)methyl]benzonitrile] | promoted neurite outgrowth | – | –
6 | CN1C(=O)C(O)(CC(=O)c2ccc(Cl)cc2)c2ccccc21 (centres unmarked) [compound 592, 3-[2-(4-chlorophenyl)-2-oxoethyl]-3-hydroxy-1-methyl-1,3-dihydro-2H-indol-2-one] | inhibited neurite outgrowth | – | –
7 | O=C(CC1(O)C(=O)Nc2ccc(Br)cc21)c1ccc(Cl)cc1 (centres unmarked) [compound 5475, 5-bromo-3-[2-(4-chlorophenyl)-2-oxoethyl]-3-hydroxy-1,3-dihydro-2H-indol-2-one] | inhibited neurite outgrowth | – | –
8 | Cc1nccc(-c2cccc(N/N=C(\C#N)C(=O)c3ccc(Cl)cc3)c2)n1 [KMO2502] | inhibited neurite outgrowth | – | –
9 | N#C/C(=C\c1ccc(C#Cc2ccccc2)cc1)C(=O)c1ccc(Cl)cc1 [KM, 2-(4-chlorobenzoyl)-3-[4-(2-phenyleth-1-ynyl)phenyl]acrylonitrile] | promoted neurite outgrowth | no effect | inhibition of Nogo receptor:Nogo 66 interaction signal, DELFIA [2]: dose dependent signal inhibition; inhibition of Nogo receptor:Nogo 66 interaction signal, DELFIA ([2]; listed as KM08071): inhibit; basal neurite outgrowth, E13 chick DRG neurons [1]: neurite outgrowth promoting effect; neurite outgrowth in the absence of exogenous FcNgR [3]: promoted neurite outgrowth; outgrowth promoting effect when coadministered with FcNgR [3]: inhibited; also recorded: blocking
10 | N.N.[Cl][Pt][Cl] [Cisplatin] | – | – | inhibition of Nogo receptor:Nogo 66 interaction, ELISA [5]: inhibit
11 | Cc1oc2ccc(O)cc2c1C(=O)c1ccc(Cl)cc1 [compound 585, (4-chlorophenyl)(5-hydroxy-2-methyl-1-benzofuran-3-yl)methanone] | promoted neurite outgrowth | no effect | basal neurite outgrowth, E14 chick DRG neurons [1]: neurite outgrowth promoting effect
12 | Cc1ccc2occ(C(=O)c3ccc(Cl)cc3)c(=O)c2c1 [compound 5472, 3-(4-chlorobenzoyl)-6-methyl-4H-chromen-4-one] | promoted neurite outgrowth | – | –
13 | CCN1C(=O)C(O)(CC(=O)c2ccc(Cl)cc2)c2ccccc21 (centres unmarked) [compound 664, 3-[2-(4-chlorophenyl)-2-oxoethyl]-1-ethyl-3-hydroxy-1,3-dihydro-2H-indol-2-one] | inhibited neurite outgrowth | – | –
14 | O=C(c1ccc(Cl)cc1)c1coc2ccc(O)cc12 [compound 5470, (4-chlorophenyl)(5-hydroxy-1-benzofuran-3-yl)methanone] | promoted neurite outgrowth | no effect | basal neurite outgrowth, E14 chick DRG neurons [1]: neurite outgrowth promoting effect
15 | Acetyl-RIYKSVLQAVQKTDEGHPFKAYLELEITLSQEQ-Amide (Ac-RIYKSVLQAVQKTDEGHPFKAYLELEITLSQEQ-NH2) [NEP33] | – | – | interference with Ng66:Fc-NgR interaction (AlphaScreen signal) (Fc-NgR:Ng66 interaction): reducing signal; inhibition of interaction of Ng66 and Fc-NgR (AlphaScreen signal) (Fc-NgR:Ng66 interaction; 20 hours incubation, concentration between 1.25 μM and 20 μM, beads 5 μg/ml): inhibited; inhibition of Nogo receptor:Nogo 66 interaction signal, DELFIA [2]: inhibit; inhibition of Nogo receptor:Nogo 66 interaction, ELISA [5]: inhibit
16 | CCOC(=O)C1=C(C)N=C2SCC(=O)N2C1c1ccc(N(C)C)cc1 (centres unmarked) [compound 555, ethyl 5-[4-(dimethylamino)phenyl]-7-methyl-3-oxo-2,3-dihydro-5H-[1,3]thiazolo[3,2-a]pyrimidine-6-carboxylate] | promoted neurite outgrowth | no effect | basal neurite outgrowth, E13 chick DRG neurons [1]: neurite outgrowth promoting effect; neurite outgrowth in the absence of exogenous FcNgR [3]: promoted neurite outgrowth; outgrowth promoting effect when coadministered with FcNgR [3]: inhibited; also recorded: blocking
